Each structure is given as a SMILES string.

Assay type in all cases: cell-based
The test system of one assay is BHK-21 cells. The experiment in a line: Anti-fibrosis activity test: inhibition of BHK-21 cell proliferation (CCK-8). The note with it: Mesocricetus auratus, BHK-21, 48 h, CCK-8, 48 hours after administration. An outline of the steps: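 Each concentration was tested in triplicate on adhered BHK-21 cells for 48 h, with pirfenidone as reference. A 2 h CCK-8 incubation preceded absorbance reading at 450 nm, and IC50 was obtained from percent inhibition versus blank.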

In assay [1] the test system is human lung fibroblasts HFL1. The experiment in a line: Anti-fibrosis activity test: inhibition of proliferation of human lung fibroblasts HFL1 (CCK-8). The following applies: Homo sapiens, HFL1, 48 h, human lung fibroblasts HFL1, CCK-8, 48 hours. In short, it runs like this:
(§1)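 IC50 values derive from CCK-8 absorbance (450 nm, 2 h reagent incubation) measured after a 48 h exposure to test compounds. Before dosing, cells plated at 2×10^4 cells/mL had attached for 24 h under 5% CO2 at 37° C; triplicate wells per concentration.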

Assay [2] relates to human hepatic stellate cells LX-2. Description: Anti-fibrosis activity test: inhibition of proliferation of human hepatic stellate cells LX-2 (CCK-8). The note with it: Homo sapiens, 48 h, human hepatic stellate cells LX-2, CCK-8, 48 hours. In short, it runs like this:
as §1

The subject of assay [3] is human fibrosarcoma cells HT-1080. Description: Anti-fibrosis activity test: inhibition of proliferation of human fibrosarcoma cells HT-1080 (CCK-8). The following applies: Homo sapiens, HT-1080, 48 h, human fibrosarcoma cells HT-1080, CCK-8, 48 hours. In short, it runs like this: as §1
Assay [4] relates to human dermal fibroblasts CCC-ESF-1. The experiment in a line: Anti-fibrosis activity test: inhibition of proliferation of human dermal fibroblasts CCC-ESF-1 (CCK-8). The note with it: Fibroblast; human dermal fibroblasts CCC-ESF-1, CCK-8, 48 hours. An outline of the steps:
as §1

The subject of assay [5] is human embryonic lung fibroblast IMR-90. The experiment in a line: Anti-fibrosis activity test: inhibition of proliferation of human embryonic lung fibroblast IMR-90 (CCK-8). The following applies: human embryonic lung fibroblast IMR-90, CCK-8, 48 hours. In short, it runs like this: as §1
Assay [6] concerns cardiac fibroblast RAT-iCell-C002. The experiment in a line: Anti-fibrosis activity test: inhibition of proliferation of cardiac fibroblast RAT-iCell-C002 (CCK-8). The following applies: Cardiac fibroblast, 48 h, cardiac fibroblast RAT-iCell-C002, CCK-8, 48 hours. An outline of the steps: as §1
For assay [7], the system named is mouse macrophages (RAW264.7). Description: Lipopolysaccharide-induced NO secretion in macrophages (Griess). The following applies: Mus musculus, RAW264.7, 24 h, RAW264.7, LPS 1 μg/ml, a/b isomers given as first/second symbol, read-out: IC50 (μM), inhibition of lipopolysaccharide-induced NO secretion in macrophages. As to the method:
The effects of the compounds of the present application on the lipopolysaccharide-induced NO secretion in macrophage was tested Principle: Anti-inflammatory drug activity screening is to detect the inhibitory effect of compounds on NO production in the mouse macrophages (RAW264.7). When immune cells are stimulated by microbial endotoxin, inflammatory mediators, etc., a large amount of induced NO synthase (iNOS) is produced, and thus NO is generated for immune response. Accordingly, the inhibition of NO production can serve as a direct indicator of the anti-inflammatory activity of the compound. The activity of the compound to inhibit NO production at the cellular level is directly evaluated in the abovementioned test model, thereby reflecting the anti-inflammatory activity of the compound. In this experiment, the content of NO in the medium was detected by Gris kit (Molecular probes, G-7921). Macrophages (Raw264.7) were cultured in DMEM medium containing 10% fetal bovine serum, with the cell concentration adjusted. The cells were seeded in 24-well cell culture plates, cultured in an incubator, and the test samples in different concentrations were added every other day. The blank medium was used as a blank control, and commercially available indomethacin and resveratrol were employed as positive controls. After the addition of lipopolysaccharide (LPS, 1 μg/ml), incubation was performed for 24 hours. Then the supernatant culture solution was taken, to […] reagent was added, and the absorbance value was measured by a microplate reader at 548 nm. Inhibition rate=([…])×100%.
On the technique in general: The Griess reaction detects nitrite, a stable product of nitric oxide.

With `O=C1c2cc(F)ccc2N(c2ccc(Cl)cc2)C2c3cccn3C(=O)C12` (stereo not drawn) [Compound 133a, 4-(4-Chlorophenyl)-7-fluoro-3b,9a-dihydro-9H-pyrrolizino[1,2-b]quinoline-9,10(4H)-dione], the IC50 (in general, the concentration at which inhibition is half-maximal) with BHK-21 cells lay in the range of 0.05 to 5 mM; in assay [1], 0.05 to 5 mM; in assay [2], 0.05 to 5 mM; in assay [3] it was 0.05 to 5 mM; in assay [4], 0.05 to 5 mM; in assay [5], 5 to 20 mM. For the same compound, the IC50 in assay [6] lay within 0.05 to 5 mM; in assay [7] it was 10 to 50 µM.
Take `O=C1c2c(nc3ccc(F)cc3c2Oc2ccc(Cl)cc2)-c2cccn21` [Compound 133b, 9-(4-chlorophenoxy)-7-fluoro-10H-pyrrolizino[1,2-b]quinolin-10-one]: the half-inhibitory concentration (IC50) (with BHK-21 cells; in assay [1]; in assay [2]; in assay [3]; in assay [4]; in assay [5]) was 0.05 to 5 mM throughout. The IC50 lay in the range of 0.05 to 5 mM in assay [6] and 1 to 10 µM in assay [7].
`O=C1c2c(n(C3CC3)c3ccc(F)cc3c2=O)-c2cccn21` [Compound 144a, 4-Cyclopropyl-7-fluoro-9H-pyrrolizino[1,2-b]quinoline-9,10(4H)-dione]: the IC50 in the assay on BHK-21 cells is 0.05 to 5 mM; in assay [1] it was 0.05 to 5 mM; in assay [2], < 0.05 mM; in assay [3], 0.05 to 5 mM; in assay [4], 0.05 to 5 mM; in assay [5] it was 0.05 to 5 mM. The IC50 in assay [6] was in the range of 0.05 to 5 mM; in assay [7], 1 to 10 µM.
Consider `O=C1c2c(nc3ccc(F)cc3c2OC2CC2)-c2cccn21` [Compound 144b, 9-cyclopropoxy-7-fluoro-10H-pyrrolizino[1,2-b]quinolin-10-one], for which the IC50 in the assay with BHK-21 cells is 0.05 to 5 mM; in assay [1], 0.05 to 5 mM; in assay [2] it was < 0.05 mM; in assay [3], 0.05 to 5 mM; in assay [4], 0.05 to 5 mM; in assay [5], 0.05 to 5 mM. For the same compound, the 50% inhibitory concentration (IC50) fell in the range of 0.05 to 5 mM in assay [6] and 1 to 10 µM in assay [7].
In the case of `O=C1c2c(n(C(=O)c3ccco3)c3ccc(F)cc3c2=O)-c2cccn21` [Compound 150a, 7-Fluoro-4-(furan-2-carbonyl)-9H-pyrrolizino[1,2-b]quinoline-9,10(4H)-dione], the IC50 was 0.05 to 5 mM with BHK-21 cells; 0.05 to 5 mM in assay [1]; 0.05 to 5 mM in assay [2]; 0.05 to 5 mM in assay [3]; 0.05 to 5 mM in assay [4]; < 0.05 mM in assay [5]. Moreover, the IC50 lay in the range of 0.05 to 5 mM in assay [6] and 1 to 10 µM in assay [7].
Turning to `O=C(Oc1c2c(nc3ccc(F)cc13)-c1cccn1C2=O)c1ccco1` [Compound 150b, 7-fluoro-10-oxo-10H-pyrrolizino[1,2-b]quinolin-9-yl furan-2-carboxylate], the IC50 was 0.05 to 5 mM in the assay with BHK-21 cells; 0.05 to 5 mM in assay [1]; < 0.05 mM in assay [2]; 0.05 to 5 mM in assay [3]; 0.05 to 5 mM in assay [4]; 0.05 to 5 mM in assay [5]. In addition, the IC50 in assay [6] was 0.05 to 5 mM; in assay [7], 1 to 10 µM.
Regarding `O=C(O)Cn1c2c(c(=O)c3cc(F)ccc31)C(=O)n1cccc1-2` [Compound 153a, 2-(7-Fluoro-9,10-dioxo-9H-pyrrolizino[1,2-b]quinolin-4(10H)-yl)acetic acid], the IC50 was < 0.05 mM with BHK-21 cells; 0.05 to 5 mM in assay [1]; < 0.05 mM in assay [2]; 0.05 to 5 mM in assay [3]; 0.05 to 5 mM in assay [4]; 0.05 to 5 mM in assay [5]. Moreover, the IC50 in assay [6] lay in the range of 0.05 to 5 mM; in assay [7] it was 1 to 10 µM.
As to `O=C(O)COc1c2c(nc3ccc(F)cc13)-c1cccn1C2=O` [Compound 153b, 2-((7-fluoro-10-oxo-10H-pyrrolizino[1,2-b]quinolin-9-yl)oxy)acetic acid], the IC50 (in the assay on BHK-21 cells; in assay [1]; in assay [2]; in assay [3]; in assay [4]; in assay [5]) was 0.05 to 5 mM throughout. For the same compound, the IC50 in assay [6] fell in the range of 0.05 to 5 mM; in assay [7] it was 1 to 10 µM.
For `O=C1c2c([nH]c3ccc(F)cc3c2=O)-c2cccn21` [Compound 156a, 7-Fluoro-9H-pyrrolizino[1,2-b]quinoline-9,10(4H)-dione], the IC50 with BHK-21 cells is 0.05 to 5 mM; in assay [1], < 0.05 mM; in assay [2], < 0.05 mM; in assay [3], 0.05 to 5 mM; in assay [4], 0.05 to 5 mM; in assay [5] it was 0.05 to 5 mM. The values for the IC50 in assay [6] and in assay [7] were 0.05 to 5 mM and 1 to 10 µM, respectively.
Regarding `O=C1c2c(nc3ccc(F)cc3c2O)-c2cccn21` [Compound 156b, 7-fluoro-9-hydroxy-10H-pyrrolizino[1,2-b]quinolin-10-one], the IC50 in the assay with BHK-21 cells is 0.05 to 5 mM; in assay [1] it was < 0.05 mM; in assay [2], 0.05 to 5 mM; in assay [3] it was 0.05 to 5 mM; in assay [4], 0.05 to 5 mM; in assay [5], 0.05 to 5 mM. In addition, the IC50 in assay [6] was in the range of 0.05 to 5 mM; in assay [7], 0.1 to 1 µM.
On to `O=C1c2c([nH]c3ccc(Cl)cc3c2=O)-c2cccn21` [Compound 180a, 7-Chloro-9H-pyrrolizino[1,2-b]quinoline-9,10(4H)-dione], for which the IC50 with BHK-21 cells is 20 to 100 mM; in assay [1], 0.05 to 5 mM; in assay [2], 0.05 to 5 mM; in assay [3], 0.05 to 5 mM; in assay [4], 0.05 to 5 mM; in assay [5], 0.05 to 5 mM. The values for the IC50 in assay [6] and in assay [7] were 0.05 to 5 mM and 1 to 10 µM, respectively.
On to `O=C1c2c(nc3ccc(Cl)cc3c2O)-c2cccn21` [Compound 180b, 7-chloro-9-hydroxy-10H-pyrrolizino[1,2-b]quinolin-10-one], for which the IC50 (in the assay on BHK-21 cells; in assay [1]; in assay [2]; in assay [3]; in assay [4]; in assay [5]) was 0.05 to 5 mM each time. For the same compound, the IC50 in assay [6] was 0.05 to 5 mM; in assay [7] it was 1 to 10 µM.
For the compound `N#Cc1ccc2c(c1)c(=O)c1c(n2-c2ccc(F)cc2)-c2cccn2C1=O` [Compound 199a, 4-(4-Fluorophenyl)-9,10-dioxo-4,10-dihydro-9H-pyrrolizino[1,2-b]quinoline-7-carbonitrile], the IC50 in the assay on BHK-21 cells was < 0.05 mM; in assay [1], 0.05 to 5 mM; in assay [2], 0.05 to 5 mM; in assay [3] it was 0.05 to 5 mM; in assay [4] it was 0.05 to 5 mM; in assay [5] it was 0.05 to 5 mM. Besides, the IC50 was 0.05 to 5 mM in assay [6] and 1 to 10 µM in assay [7].
Turning to `N#Cc1ccc2nc3c(c(Oc4ccc(F)cc4)c2c1)C(=O)n1cccc1-3` [Compound 199b, 9-(4-fluorophenoxy)-10-oxo-10H-pyrrolizino[1,2-b]quinoline-7-carbonitrile], the IC50 (with BHK-21 cells; in assay [1]; in assay [2]; in assay [3]; in assay [4]; in assay [5]) was 0.05 to 5 mM in each case. Further, the IC50 in assay [6] lay within 0.05 to 5 mM; in assay [7] it was 1 to 10 µM.
Turning to `N#Cc1ccc2c(c1)c(=O)c1c(n2-c2ccc(Cl)cc2)-c2cccn2C1=O` [Compound 210a, 4-(4-Chlorophenyl)-9,10-dioxo-4,10-dihydro-9H-pyrrolizino[1,2-b]quinoline-7-carbonitrile], the IC50 (with BHK-21 cells; in assay [1]; in assay [2]; in assay [3]; in assay [4]; in assay [5]) was 0.05 to 5 mM in each case. Moreover, the IC50 in assay [6] was 0.05 to 5 mM; in assay [7], 1 to 10 µM.

The record behind these values is US11040028B2, “Penicinotam derivative, preparation method and use thereof” (OCEAN UNIVERSITY OF CHINA, priority 2017, dated 2021).
